Measurements as given in US20250009743A1, “METHODS OF TREATING CANCERS USING STING AGONISTS” (Dana-Farber Cancer Institute, Inc., priority 2021, published 2025).

Experiments:
DF86 PDX = assay: DF86 ovarian PDX with human bone marrow monocytes in NSG mice; assay type: in vivo
Excerpt: For the PDX in vivo experiments, about 3×10^6 PDX tumor cells were mixed with 3×10^6 human bone marrow mononuclear cells in serum-free DMEM/F12 medium containing 50% Matrigel (CAT #70001, […] Technology) and intraperitoneally transplanted into NOD/SCID IL2Rgnull mice (NSG, The Jackson Laboratory). About three weeks after injection, PDX-bearing mice were equivalently divided into 4 groups according to the luminescent intensity and treated with vehicle control, olaparib, MSA-2 and olaparib in combination with MSA-2 using the same dosing and schedule that have been described above. Ascites was harvested for analysis after three weeks' treatment.
Tumors were chopped and digested in collagenase buffer as described previously (Ding et al., 2018 Cell Rep 25, 2972-2980.e2975). Single cell suspensions of tumor and ascites were obtained by filtering through 70 um strainers and treated with 1× eBioscience RBC lysis buffer (Thermo Fisher) before staining. Single cells suspensions were incubated with LIVE/DEAD Fixable Aqua Dead Cell Stain (Life Technologies, Cat #L34965) for 30 min and then blocked with anti-CD16/32 (Biolegend, clone 93) for 20 min on ice. Samples were then incubated with appropriate antibodies for 30 min on ice. Foxp3 staining buffer set (eBioscience, Cat #00-5523-00) was applied for intracellular markers staining. For the intracellular cytokine analysis, cells were stimulated with Leukocyte Activation Cocktail (BD Biosciences, Cat #550583) at 37° C. for 4-6 hours prior to FACS staining. The following antibodies were used in this study: antibodies were purchased from BioLegend unless otherwise indicated: CD45 (clone 30-F11), CD3ε (clone 145-2C11), CD4 (clone RM4-5), CD8 (clone 53-6.7), CD44 (clone IM7), CD62L (MEL-14), CD25 (PC61), IFNγ (clone XMG1.2), TNFα (clone MP6-XT22), CD11b (clone M1/70), CD11c […], F4/80 (clone BM8), Ly-6C (clone HK1.4), Ly-6G (clone 1A8), MHC-II (clone M5/114.15.2), CD80 (clone 16-10A1), CD86 (clone GL-1), MHC-I (clone KH114), FoxP3 (clone FJK-16 s; eBioscience), Phospho-IRF-3 (Ser396) (clone D601M, Cell signaling technology) and Phospho-TBK1/NAK (Ser172) (clone D52C2, Cell signaling technology). The following human antibodies were used in this study: cell surface markers includes CD45 (clone H130), CD11b (clone M1/70), CD11c (clone Bu15), CD80 (clone 2D10), CD86 (clone IT2.2), CD14 (clone 63D3), CD15 […], HLA-DR (clone L243) and HLA-A,B,C (clone W6/32); intracellular markers include CD163 (clone GHI/61), CD68 (clone Y1/82A) and CD206 (clone 15-2). Flow cytometry was performed on an LSRII (BD Biosciences) or Fortessa HTS (BD Biosciences) at DFCI Flow Cytometry Core, and all the data were analyzed using FlowJo software.

PBM tumors = assay: PBM ovarian tumor burden in syngeneic FVB/NJ mice; assay type: in vivo, mouse; settings: olaparib 50 mg/kg i.p. 6 days a week; most tumors eventually progressed; FIG. 15B
Procedure: Tumor burden of PBM tumor-bearing mice treated with indicated agents was measured by bioluminescence (ROI, […]) after 2 weeks of treatment (control, n=6; olaparib, n=7, olaparib+MSA-2, n=4). Ordinary one-way ANOVA analysis. **, P<0.01; ***, P<0.001. The murine ovarian tumor model PBM used for this experiment was previously generated (Ding L, Kim H J, Wang Q, Kearns M, Jiang T, Ohlson C E, Li B B, Xie S, Liu J F, Stover E H, Howitt B E, Bronson R T, Lazo S, Roberts T M, Freeman G J, Konstantinopoulos P A, Matulonis U A, Zhao J J. PARP Inhibition Elicits STING-Dependent Antitumor Immunity in Brca1-Deficient Ovarian Cancer. Cell Rep. 2018 Dec. 11;25 (11): 2972-2980.e5. doi: 10.1016/j.celrep.2018.11.054. PMID: 30540933; PMCID: PMC6366450). About 2×10^5 PBM tumor cells were orthotopically transplanted into syngeneic FVB/NJ mice. Ten days after transplantation, Tumor-bearing mice were equivalently divided into control and treatment groups according to the luminescent intensity. Tumor burden of PBM tumor-bearing mice was measured by bioluminescence (ROI, […]). Olaparib (AZD2281) was administered daily by i.p. (intraperitoneal) injection at dose of 50 mg/kg body weight. […]
The PBM and PBM-R tumor cells were transplanted orthotopically into syngeneic FVB/NJ mice to generated tumors for drug evaluation. […] The endpoints were determined by tumor burden and ascites.

Compound	proportion of TAMs in ascites (DF86 PDX; FIG. 25H)	M1/M2 ratio in ascites (DF86 PDX; FIG. 25I)	CD14^+ myeloid DCs (CD14^+HLA-DR^+) (DF86 PDX; FIG. 25J)	tumor burden (fold change of intensity of luciferase signal) (DF86 PDX; compared to control or olaparib treated mice, FIG. 25G)	PBM tumor response (PBM tumors)
COc1cc2cc(C(=O)CCC(=O)O)sc2cc1OC [MSA-2]	decreased proportion of TAMs	increased M1/M2 ratio	significantly increased	significantly decreased	
O=C(c1cc(Cc2n[nH]c(=O)c3ccccc23)ccc1F)N1CCN(C(=O)C2CC2)CC1 [olaparib]					initial robust response
